Experimental data as given in patent publication EP0425828A2, “Facteur thymique sérique for prevention and remedy of disorders of decrease in the number of blood corpuscles” (MITSUI TOATSU CHEMICALS, Inc., priority 1989, dated 1991).
Square brackets hold non-standard residues; d marks the D form. Peptide text beside a SMILES is read from it. pGlu = O=C1CC[C@@H](C(=O)O)N1

Tests used:
leucocytes (WBC) = test: Effect on mice to which cyclophosphamide (CPA) was intraperitoneally administered: blood inspection, WBC; assay type: in vivo, male C3H/HeN mice; conditions: for WBC, mean value ± S.D.: 400 mg/kg of CPA alone i.p. once on day zero
Description: (§1) Several groups each consisting of 10 male C3H/HeN mice of 8 weeks old were prepared. For the first group, 0.2 ml of physiological saline was subcutaneously administered for consecutive 12 days from 2 days before the examination to the 9th day of the examination. For the second group, FTS substance was subcutaneously administered once a day in an amount of 100 iig/0.2 ml for consecutive 12 days. For the third group, CPA was intraperitoneally administered in an amount of 400 mg/kg once on the zero day of the examination. For the fourth group, an administration schedule combining the second group with the third group was applied to the mice. For the fifth group, CPA was intraperitoneally administered in an amount 200 mg/kg once on the zero day of the examination. For the sixth group, an administration schedule combining the second group with the fifth group was applied to the mice. For the seventh group, CPA was intraperitoneally administered in an amount of 100 mg/kg once on the zero day of the examination. For the eighth group, an administration schedule combining the second group with the seventh group to the mice. During the examination, blood was collected by cutting axillary artery on the days of examination (0, 3rd, 5th, 7th, 10th and 14th days) and subjected to a blood inspection to measure the number of leucocytes (WBC), the number of erythrocytes (RBC), the number of reticulocytes (RET), the number of platelets (PLT), the number of hemoglobin (HGB), hematocrit value (HCT), a mean corpuscular volume, a mean corpuscular hemoglobin and a mean corpuscular hemoglobin concentration.

reticulocytes (RET) = test: Effect on mice to which CPA was intraperitoneally administered: blood inspection, RET; assay type: in vivo, male C3H/HeN mice
Description: as §1, with “During the examination, blood was collected by cutting axillary artery on the days of examination (0, 3rd, 5th, 7th, 10th and 14th days) and subjected to a blood inspection to measure the number of leucocytes (WBC), the number of erythrocytes (RBC), the number of reticulocytes (RET), the number of platelets (PLT), the number of hemoglobin (HGB), hematocrit value (HCT), a mean corpuscular volume, a mean corpuscular hemoglobin and a mean corpuscular hemoglobin concentration.” left out

platelets (PLT) = test: Effect on mice to which CPA was intraperitoneally administered: blood inspection, PLT; assay type: in vivo, male C3H/HeN mice
Description: as §1

[1] = Effect on mice to which CPA was intraperitoneally administered: body weight; assay type: in vivo, male C3H/HeN mice; conditions: CPA alone
Description: as §1, with “During the examination, blood was collected by cutting axillary artery on the days of examination (0, 3rd, 5th, 7th, 10th and 14th days) and subjected to a blood inspection to measure the number of leucocytes (WBC), the number of erythrocytes (RBC), the number of reticulocytes (RET), the number of platelets (PLT), the number of hemoglobin (HGB), hematocrit value (HCT), a mean corpuscular volume, a mean corpuscular hemoglobin and a mean corpuscular hemoglobin concentration.” left out

[2] = test system: leucocytes in peripheral blood; test: Effect on mice to which MMC was intraperitoneally administered: leucocyte count; assay type: in vivo, female ICR/JCL mice; conditions: MMC alone, 20 µg/0.1 ml i.p. once a day for 10 days
Description: Four groups each consisting of 6 female ICR/JCL mice of 5 weeks old were treated as follows: For the first group, 0.1 ml of physiological saline was intraperitoneally administered to the mice for consecutive 12 days. For the second group, FTS substance was subcutaneously administered once a day in an amount of 100 u.g for consecutive 12 days. For the third group, MMC was intraperitoneally administered once a day in an amount of 20 µg/0.1 ml for 10 days from the zero day to the 9th day of the experiment. For the fourth group, FTS substance was subcutaneously administered to the mice once a day in an amount of 100 µg for consecutive 12 days from 2 days before the administration of MMC, and for 10 days from the […] after the administration of FTS substance MMC was intraperitoneally administered once a day in an amount of 20 u.g/0.1 ml. After the administration of the anti-cancer agent, blood was collected on alternate days from oculus vein and the numbr of leucocytes in the blood was counted.

ddy strain male mice = test: Toxicity test in mice, repeated subcutaneous administration; assay type: in vivo; conditions: for toxicity: five ddy strain male mice of 5 weeks old
Source text: (§2) Thus, the medicament of the present invention is a safe medicament of extremely low toxicity and can be administered for a long period of time.

Wistar rats = test: Toxicity test in rats, repeated subcutaneous administration; assay type: in vivo; conditions: 30 mg/kg s.c. for consecutive 21 days
Source text: as §2

[3] = 7th day, 400mg/kg of CPA alone i.p. once on day zero

**Q.** Which “WBC, mean value ± S.D.” value (leucocytes (WBC); 3rd day) does the source give for O=P1(N(CCCl)CCCl)NCCCO1 (stereo not drawn) [CPA, cyclophosphamide] here?
**A.** Its value is 11.6±2.1 x 10^2/mm^3.

**Q.** What about the “WBC, mean value ± S.D.” value (leucocytes (WBC); 5th day) of the same molecule?
**A.** Its value is 4.2±1.0 x 10^2/mm^3.

**Q.** And the WBC change (leucocytes (WBC); CPA alone 400 mg/kg, 200 mg/kg or 100 mg/kg, 3rd, 5th and 7th day, 5th day the minimum)?
**A.** Its WBC change is “considerably decreased”.

**Q.** What about the RET (reticulocytes (RET); [3]) of the same molecule?
**A.** The RET was 27.2±5.0 0/00.

**Q.** What about the RET change (reticulocytes (RET); CPA administered, 5th day the minimum) of the same molecule?
**A.** Its RET change is “RET was decreased”.

**Q.** And the PLT change (platelets (PLT); 400 mg/kg and 200 mg/kg of CPA, 7th day the minimum, recovered to the normal range on the 10th day)?
**A.** Its PLT change is “PLT was decreased”.

**Q.** What about the PLT (platelets (PLT); 5th day, 400 mg/kg of CPA alone i.p. once on day zero) of the same molecule?
**A.** The PLT was 357±82 x 10^3/mm^3.

**Q.** And the PLT (platelets (PLT); [3])?
**A.** Its PLT is 214±73 x 10^3/mm^3.

**Q.** What about the body weight change [1] of the same molecule?
**A.** The body weight change was “decrease in body weight”.

**Q.** For CO[C@@]12[C@H](COC(N)=O)C3=C(C(=O)C(C)=C(N)C3=O)N1C[C@@H]1N[C@@H]12 [MMC, mitomycine C], which “number of leucocytes, lowest level as % of the maximum normal range” value [2] is on record?
**A.** Its value is “about 40%”.

**Q.** What does the source list for C[C@H](NC(=O)[C@@H]1CCC(=O)N1)C(=O)N[C@@H](CCCCN)C(=O)N[C@@H](CO)C(=O)N[C@@H](CCC(N)=O)C(=O)NCC(=O)NCC(=O)N[C@@H](CO)C(=O)N[C@@H](CC(N)=O)C(=O)O [effective ingredient, pGlu-Ala-Lys-Ser-Gln-Gly-Gly-Ser-Asn] ([pGlu]AKSQGGSN-OH)?
**A.** toxicity (ddy strain male mice; 50 mg/kg s.c. for consecutive 14 days): No toxicity was observed; abnormal symptoms by external check (ddy strain male mice; 100 mg/kg s.c. every day for consecutive 14 days, mice): no abnormal symptom was found; toxicity (ddy strain male mice; 100mg/kg s.c. for consecutive 14 days): No toxicity was observed; abnormal symptoms in external behavior observation, biochemical diagnosis of sera and pathological anatomy (Wistar rats; rats): no abnormal symptom was found; toxicity (Wistar rats; ten Wistar rats of 5 weeks old): No toxicity was observed
